Laboratory results taken from patent publication US20240287100A1, “ALKYLIDENE DERIVATIVES AS KRAS INHIBITORS” (NIKANG THERAPEUTICS, INC., priority 2021, published 2024).

Target: T1, K-Ras G12D (Homo sapiens, UniProt P01116, G12D)
T1 construct: AGS (Cobioer, CBP60476) cell lines which harbor KRAS G12D mutation; host or cells: AGS
Test: p-ERK Cellular 1-Plate Assay (AlphaLISA SureFire Ultra p-ERK1/2) in AGS cells
Assay type: cell-based
Settings: AGS cells harboring KRAS G12D mutation, 3 h at 37° C., 5,000 cells per well
Method: p-ERK Cellular 1-Plate Assay
The ability of the compound of Formula (I) or a pharmaceutically acceptable salt thereof (test compound) to inhibit K-Ras G12D activity was tested using AGS (Cobioer, CBP60476) cell lines which harbor KRAS G12D mutation as described below.
AGS (Cobioer, CBP60476) were seeded in 384-well plates and cultured overnight (5,000 cells per well, 40 μl total volume). The following morning, cells were treated with test compound, with starting concentration at 10 μM and 3-fold dilution down to 0.5 nM for 3 h at 37° C. DMSO treatment served as control, p-ERK was then measured using AlphaLISA SureFire Ultra p-ERK1/2 (Thr202/Tyr204) Assay Kit (Perkin Elmer, cat #ALSU-PERK) following the manufacturer's instruction as follows.
Briefly, the culture medium was removed and 10 μl 1× lysis buffer was added to each well, followed by 10 minutes incubation on a plate shaker at room temperature. Acceptor mixture was prepared according to manufacturer's instruction. 5 μl acceptor mixture was added to the cell lysate and the plate was wrapped with foil, spun at 500 rpm for 10 s and incubated at RT for 60 min. Donor mixture was prepared under subdued light. 5 μl donor mixture was added to the cell lysate and the plate was spun at 500 rpm for 10s and incubated at RT for another 60 min. in the dark. Signal was then measured on a EnVision 2105 multimode plate reader. […]

T1 sequence (P01116 1-188 isoform P01116-2 G12D): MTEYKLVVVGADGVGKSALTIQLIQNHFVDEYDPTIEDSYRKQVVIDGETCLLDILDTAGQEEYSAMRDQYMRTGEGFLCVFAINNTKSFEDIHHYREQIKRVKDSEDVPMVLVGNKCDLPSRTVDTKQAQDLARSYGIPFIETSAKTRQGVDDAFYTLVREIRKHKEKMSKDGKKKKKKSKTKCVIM

EC50 [nM]	SMILES
> 100	C#Cc1c(F)ccc2cccc(-c3ncc4c(N5CC6CCC5CN6)nc(OC[C@]56CC(=C)CN5C[C@H](F)C6)nc4c3F)c12 (stereo partly drawn) [Example 31, 2-(7-(8-ethynyl-7-fluoronaphthalen-1-yl)-8-fluoro-2-(((2R,7aR)-2-fluoro-6-methylenetetrahydro-1H-pyrrolizin-7a(5H)-yl)methoxy)pyrido[4,3-d]pyrimidin-4-yl)-2,5-diazabicyclo[2.2.2]octane]
170	C#Cc1c(F)ccc2cccc(-c3ncc4c(N5CC6CCC(C)(C5)N6)nc(OC[C@]56CC(=C)CN5C[C@@H](F)C6)nc4c3F)c12 (stereo partly drawn) [Example 30, 7-(8-ethynyl-7-fluoronaphthalen-1-yl)-8-fluoro-2-(((2S,7aR)-2-fluoro-6-methylenetetrahydro-1H-pyrrolizin-7a(5H)-yl)methoxy)-4-(1-methyl-3,8-diazabicyclo[3.2.1]octan-3-yl)pyrido[4,3-d]pyrimidine]
